According to patent US4554287A, “Antihypertensive 7-[2-(dialkylamino)ethyl]-4-hydroxy-1,3-benzimidazol-2-ones” (Smithkline Beckman Corporation, priority 1984, dated 1985):
Read-outs that look alike come from different tables or passages of the source.

How the values were obtained:
[1] = biological target: T1, D2 -receptors (Oryctolagus cuniculus, UniProt G1T1Q0); test: perfused rabbit ear artery test for D2-agonist activity
T1 construct: perfused rabbit ear artery test; from tissue; host or cells: perfused rabbit ear artery (sympathetic nerve terminals)
T1 sequence (G1T1Q0 1-443): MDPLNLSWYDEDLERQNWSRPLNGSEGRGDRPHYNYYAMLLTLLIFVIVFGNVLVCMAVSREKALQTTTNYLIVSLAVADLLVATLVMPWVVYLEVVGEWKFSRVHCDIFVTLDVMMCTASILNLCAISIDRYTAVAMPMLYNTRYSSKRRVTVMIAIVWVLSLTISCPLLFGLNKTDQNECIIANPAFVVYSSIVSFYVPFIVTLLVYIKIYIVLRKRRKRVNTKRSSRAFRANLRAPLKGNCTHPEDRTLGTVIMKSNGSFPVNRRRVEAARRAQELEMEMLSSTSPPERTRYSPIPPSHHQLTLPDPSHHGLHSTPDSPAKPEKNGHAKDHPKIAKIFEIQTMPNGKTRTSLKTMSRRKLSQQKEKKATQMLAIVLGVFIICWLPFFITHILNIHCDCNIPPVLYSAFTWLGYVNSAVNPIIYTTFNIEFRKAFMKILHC
Excerpt: In the perfused rabbit ear artery test for D2 -agonist activity [J. P. Hieble et al., Arch.

[2] = system: D2 -receptors; test: D2-agonist activity (test not specified); details: presynaptic dopaminergic receptors on sympathetic nerve terminals
Excerpt: Otherwise speaking, the main locus of action is at the presynaptic dopaminergic receptors or sympathetic nerve terminals which may also be called "D2 -receptors." Activation of the D2 -receptors on the sympathetic nerve terminals inhibits the release of norepinephrine, thereby inhibiting the increases in cardiac rate and the peripheral vasoconstriction resulting from stimulation of the sympathetic nervous system. These are beneficial cardiovascular actions in those conditions involving excessive or inappropriate levels of sympathetic nervous system stimulation.

| SMILES | EC50 [1] | EC50 ([1]; perfused rabbit ear artery, D2 -agonist activity, read-out: EC50) | D2 -agonist activity (in words) [2] |
| --- | --- | --- | --- |
| CCCN(CCC)CCc1ccc(O)c(O)c1 [N,N-di-n-propyldopamine, reference compound] | 50 to 60 nM |  |  |
| CCCN(CCC)CCc1ccc(O)c2[nH]c(=O)[nH]c12 [7-[2-(N,N-di-n-propylamino)ethyl]-4-hydroxy-1,3-benzimidazol-2-one] |  | ~9 nM | peripheral D2 -agonists |
